Data reported in PubChem BioAssay (NCI).
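Where inhibition never reached the appropriate level, the endpoint shown equals the highest concentration tested. Otherwise, values were interpolated linearly from a five-concentration, 48-hour dose response in 96-well plates. Definition used: TGI = concentration required for complete inhibition of growth.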

Key:
Experiment in all cases: DTP human tumour cell line panel, 48 h
HT29 colon = test system: HT29 colon
NCI-H226 lung = test system: NCI-H226 lung
SK-MEL-5 melanoma = test system: SK-MEL-5 melanoma
UACC-257 melanoma = test system: UACC-257 melanoma
TK-10 renal = test system: TK-10 renal
MDA-N = test system: MDA-N
SK-MEL-28 melanoma = test system: SK-MEL-28 melanoma
PC-3 prostate = test system: PC-3 prostate
SR leukemia = test system: SR leukemia
UO-31 renal = test system: UO-31 renal
T-47D breast = test system: T-47D breast
CAKI-1 renal = test system: CAKI-1 renal
CCRF-CEM leukemia = test system: CCRF-CEM leukemia
MCF7 breast = test system: MCF7 breast
BT-549 breast = test system: BT-549 breast
HCT-15 colon = test system: HCT-15 colon
MOLT-4 leukemia = test system: MOLT-4 leukemia
LOX IMVI melanoma = test system: LOX IMVI melanoma
HCC-2998 colon = test system: HCC-2998 colon
SK-OV-3 ovarian = test system: SK-OV-3 ovarian
ACHN renal = test system: ACHN renal
786-0 renal = test system: 786-0 renal
RPMI-8226 leukemia = test system: RPMI-8226 leukemia
UACC-62 melanoma = test system: UACC-62 melanoma
HCT-116 colon = test system: HCT-116 colon
KM12 colon = test system: KM12 colon
MALME-3M melanoma = test system: MALME-3M melanoma
MDA-MB-435 = test system: MDA-MB-435
NCI-H23 lung = test system: NCI-H23 lung
SF-539 CNS = test system: SF-539 CNS
A498 renal = test system: A498 renal
K-562 leukemia = test system: K-562 leukemia
IGROV1 ovarian = test system: IGROV1 ovarian
SNB-19 CNS = test system: SNB-19 CNS
SN12C renal = test system: SN12C renal
SF-268 CNS = test system: SF-268 CNS
DU-145 prostate = test system: DU-145 prostate
MDA-MB-231 breast = test system: MDA-MB-231 breast
NCI-H460 lung = test system: NCI-H460 lung
SNB-75 CNS = test system: SNB-75 CNS
OVCAR-8 ovarian = test system: OVCAR-8 ovarian
NCI-H522 lung = test system: NCI-H522 lung
HS 578T breast = test system: HS 578T breast
EKVX NSCLC = test system: EKVX NSCLC
HL-60(TB) leukemia = test system: HL-60(TB) leukemia
SF-295 CNS = test system: SF-295 CNS
COLO 205 colon = test system: COLO 205 colon
HOP-62 NSCLC = test system: HOP-62 NSCLC
SW-620 colon = test system: SW-620 colon
A549 NSCLC = test system: A549 NSCLC
M14 melanoma = test system: M14 melanoma
HOP-92 NSCLC = test system: HOP-92 NSCLC
NCI/ADR-RES ovarian = test system: NCI/ADR-RES ovarian
OVCAR-5 ovarian = test system: OVCAR-5 ovarian
OVCAR-4 ovarian = test system: OVCAR-4 ovarian
U251 CNS = test system: U251 CNS
OVCAR-3 ovarian = test system: OVCAR-3 ovarian
SK-MEL-2 melanoma = test system: SK-MEL-2 melanoma

Question: How did the TGI (HT29 colon) turn out when CC1=NC(=Cc2ccc(Cl)cc2)C(=O)N1n1c(-c2ccccc2)nc2ccccc2c1=O was run?
Answer: Its TGI is over 100 µM.

Question: What about the TGI (NCI-H226 lung) of the same compound?
Answer: The TGI was over 100 µM.

Question: And the TGI (SK-MEL-5 melanoma)?
Answer: The TGI was over 100 µM.

Question: And the TGI (UACC-257 melanoma)?
Answer: The TGI was 75.5 µM.

Question: And the TGI (TK-10 renal)?
Answer: Its TGI is over 100 µM.

Question: What about the TGI (MDA-N) of the same compound?
Answer: The TGI was over 100 µM.

Question: What about the TGI (SK-MEL-28 melanoma) of the same compound?
Answer: The TGI was over 100 µM.

Question: What about the TGI (PC-3 prostate) of the same compound?
Answer: The TGI was over 100 µM.

Question: What about the TGI (SR leukemia) of the same compound?
Answer: The TGI was over 100 µM.

Question: And the TGI (UO-31 renal)?
Answer: Its TGI is over 100 µM.

Question: And the TGI (T-47D breast)?
Answer: The TGI was 74.3 µM.

Question: And the TGI (CAKI-1 renal)?
Answer: The TGI was 69.1 µM.

Question: And the TGI (CCRF-CEM leukemia)?
Answer: Its TGI is over 100 µM.

Question: And the TGI (MCF7 breast)?
Answer: The TGI was over 100 µM.

Question: And the TGI (BT-549 breast)?
Answer: The TGI was over 100 µM.

Question: What about the TGI (HCT-15 colon) of the same compound?
Answer: Its TGI is over 100 µM.

Question: What about the TGI (MOLT-4 leukemia) of the same compound?
Answer: The TGI was over 100 µM.

Question: What about the TGI (LOX IMVI melanoma) of the same compound?
Answer: Its TGI is over 100 µM.

Question: And the TGI (HCC-2998 colon)?
Answer: The TGI was over 100 µM.

Question: What about the TGI (SK-OV-3 ovarian) of the same compound?
Answer: Its TGI is over 100 µM.

Question: And the TGI (ACHN renal)?
Answer: Its TGI is 46.7 µM.

Question: And the TGI (786-0 renal)?
Answer: The TGI was over 100 µM.

Question: And the TGI (RPMI-8226 leukemia)?
Answer: The TGI was over 100 µM.

Question: What about the TGI (UACC-62 melanoma) of the same compound?
Answer: Its TGI is over 100 µM.

Question: What about the TGI (HCT-116 colon) of the same compound?
Answer: The TGI was over 100 µM.

Question: And the TGI (KM12 colon)?
Answer: The TGI was over 100 µM.

Question: What about the TGI (MALME-3M melanoma) of the same compound?
Answer: Its TGI is over 100 µM.

Question: And the TGI (MDA-MB-435)?
Answer: Its TGI is over 100 µM.

Question: What about the TGI (NCI-H23 lung) of the same compound?
Answer: The TGI was 96 µM.

Question: What about the TGI (SF-539 CNS) of the same compound?
Answer: The TGI was over 100 µM.

Question: What about the TGI (A498 renal) of the same compound?
Answer: The TGI was 63.4 µM.

Question: What about the TGI (K-562 leukemia) of the same compound?
Answer: Its TGI is over 100 µM.

Question: What about the TGI (IGROV1 ovarian) of the same compound?
Answer: The TGI was over 100 µM.

Question: What about the TGI (SNB-19 CNS) of the same compound?
Answer: The TGI was over 100 µM.

Question: What about the TGI (SN12C renal) of the same compound?
Answer: The TGI was over 100 µM.

Question: And the TGI (SF-268 CNS)?
Answer: Its TGI is over 100 µM.

Question: And the TGI (DU-145 prostate)?
Answer: The TGI was over 100 µM.

Question: What about the TGI (MDA-MB-231 breast) of the same compound?
Answer: The TGI was over 100 µM.

Question: What about the TGI (NCI-H460 lung) of the same compound?
Answer: The TGI was 60.7 µM.

Question: And the TGI (SNB-75 CNS)?
Answer: The TGI was 99.6 µM.

Question: What about the TGI (OVCAR-8 ovarian) of the same compound?
Answer: Its TGI is over 100 µM.

Question: What about the TGI (NCI-H522 lung) of the same compound?
Answer: The TGI was 43 µM.

Question: What about the TGI (HS 578T breast) of the same compound?
Answer: The TGI was 57.3 µM.

Question: And the TGI (EKVX NSCLC)?
Answer: Its TGI is over 100 µM.

Question: And the TGI (HL-60(TB) leukemia)?
Answer: Its TGI is 78.6 µM.

Question: What about the TGI (SF-295 CNS) of the same compound?
Answer: The TGI was over 100 µM.

Question: What about the TGI (COLO 205 colon) of the same compound?
Answer: Its TGI is over 100 µM.

Question: And the TGI (HOP-62 NSCLC)?
Answer: Its TGI is over 100 µM.

Question: What about the TGI (SW-620 colon) of the same compound?
Answer: Its TGI is over 100 µM.

Question: What about the TGI (A549 NSCLC) of the same compound?
Answer: The TGI was over 100 µM.

Question: What about the TGI (M14 melanoma) of the same compound?
Answer: The TGI was over 100 µM.

Question: What does the source list for O=C1/C(=C/c2cccc([N+](=O)[O-])c2)CCCc2ccccc21?
Answer: TGI (HT29 colon): 24 µM; TGI (NCI-H226 lung): 33.2 µM; TGI (HOP-92 NSCLC): 29.6 µM; TGI (UACC-257 melanoma): 30.2 µM; TGI (NCI/ADR-RES ovarian): 23.8 µM; TGI (TK-10 renal): 30.8 µM; TGI (OVCAR-5 ovarian): 27.6 µM; TGI (MDA-N): 22.7 µM; TGI (SK-MEL-28 melanoma): 28.6 µM; TGI (PC-3 prostate): 23 µM; TGI (SR leukemia): 11 µM; TGI (UO-31 renal): 30 µM; TGI (CAKI-1 renal): 30.1 µM; TGI (CCRF-CEM leukemia): 10.5 µM; TGI (MCF7 breast): 15.3 µM; TGI (BT-549 breast): 28.1 µM; TGI (HCT-15 colon): 23 µM; TGI (MOLT-4 leukemia): 34 µM; TGI (LOX IMVI melanoma): 16.5 µM; TGI (HCC-2998 colon): 22 µM; TGI (SK-OV-3 ovarian): 63.8 µM; TGI (ACHN renal): 26.6 µM; TGI (786-0 renal): 26.6 µM; TGI (OVCAR-4 ovarian): 33.4 µM; TGI (RPMI-8226 leukemia): 49 µM; TGI (UACC-62 melanoma): 21.6 µM; TGI (HCT-116 colon): 17.2 µM; TGI (KM12 colon): 16.5 µM; TGI (MALME-3M melanoma): 22.2 µM; TGI (U251 CNS): 20.9 µM; TGI (MDA-MB-435): 21.4 µM; TGI (NCI-H23 lung): 31.4 µM; TGI (SF-539 CNS): 28.6 µM; TGI (K-562 leukemia): 14.6 µM; TGI (IGROV1 ovarian): 25.8 µM; TGI (SNB-19 CNS): 28.5 µM; TGI (SN12C renal): 33.1 µM; TGI (SF-268 CNS): 19.3 µM; TGI (DU-145 prostate): 28.2 µM; TGI (MDA-MB-231 breast): 34.2 µM; TGI (NCI-H460 lung): 34.1 µM; TGI (SNB-75 CNS): 29.9 µM; TGI (OVCAR-3 ovarian): 26.5 µM; TGI (OVCAR-8 ovarian): 28.9 µM; TGI (NCI-H522 lung): 19.9 µM; TGI (HS 578T breast): 25.9 µM; TGI (EKVX NSCLC): 32.5 µM; TGI (HL-60(TB) leukemia): 21.6 µM; TGI (SF-295 CNS): 27.7 µM; TGI (COLO 205 colon): 32.8 µM; TGI (HOP-62 NSCLC): 29.3 µM; TGI (SK-MEL-2 melanoma): 23 µM; TGI (SW-620 colon): 17 µM; TGI (A549 NSCLC): 48 µM; TGI (M14 melanoma): 26.7 µM
